Results published in ChEMBL document CHEMBL5143555, “Potentiating the intracellular killing of Staphylococcus aureus by dihydroquinazoline analogues as NorA efflux pump inhibitor” (Bioorg Med Chem, 2022).
≈ marks a conversion by molar mass, not a printed value. Calls of active or inactive are those of the source. The rule behind the calls is not given here.

Experiments:
[1] = molecular target: T1, Quinolone resistance protein NorA (Staphylococcus aureus) (UniProt P0A0J7); assay: Inhibition of NorA in Staphylococcus aureus 1199B assessed as potentiation of ethidium bromide-induced antibacterial activity by measuring ethidium bromide MIC at sub MIC relative to ethidium bromide MIC alone
T1 sequence (whole entry): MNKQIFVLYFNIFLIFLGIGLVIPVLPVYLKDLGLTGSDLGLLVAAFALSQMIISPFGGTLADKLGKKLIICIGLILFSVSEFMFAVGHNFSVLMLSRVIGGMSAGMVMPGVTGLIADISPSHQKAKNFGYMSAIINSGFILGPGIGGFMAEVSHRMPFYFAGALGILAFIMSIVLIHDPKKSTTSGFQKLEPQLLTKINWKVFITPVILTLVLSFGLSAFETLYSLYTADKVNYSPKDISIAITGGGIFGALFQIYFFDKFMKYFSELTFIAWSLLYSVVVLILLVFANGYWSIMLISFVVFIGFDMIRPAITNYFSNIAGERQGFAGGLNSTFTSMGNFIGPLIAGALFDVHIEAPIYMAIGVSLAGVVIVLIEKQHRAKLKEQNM

Staphylococcus aureus [2] = assay: Down regulation of NorA gene expression in Staphylococcus aureus 1199B at 3.1 ug/ml measured after 2 hrs in presence of norfloxacin by qRT-PCR analysis relative to norfloxacin; format: functional; settings: dose 3.1 µg/ml
[3] = molecular target: T1, Quinolone resistance protein NorA (Staphylococcus aureus); assay: Inhibition of NorA in Staphylococcus aureus 1199B assessed as potentiation of ethidium bromide-induced antibacterial activity by measuring ethidium bromide MIC at sub MIC
[4] = molecular target: T1, Quinolone resistance protein NorA (Staphylococcus aureus); assay: Inhibition of NorA in Staphylococcus aureus 1199B assessed as potentiation of 3.1 ug/mL norfloxacin-induced bactericidal activity by measuring log reduction in bacterial count at 7.8 ug/mL measured after 8 hrs by time-kill kinetics assay; settings: dose 7.8 µg/ml
[5] = molecular target: T1, Quinolone resistance protein NorA (Staphylococcus aureus); assay: Inhibition of NorA in Staphylococcus aureus 1199B infected human THP-1 cells assessed as potentiation of 6.2 ug/ml norfloxacin-induced bactericidal activity by measuring log reduction in bacterial count at 15.6 ug/ml measured after 24 hrs relative to control; format: cell-based; settings: dose 15.6 µg/ml
[6] = molecular target: T1, Quinolone resistance protein NorA (Staphylococcus aureus); assay: Inhibition of NorA in Staphylococcus aureus 1199B infected human THP-1 cells assessed as potentiation of norfloxacin-induced bactericidal activity by measuring reduction in intracellular invasion at modulatory concentration measured after 24 hrs; format: cell-based
Staphylococcus aureus [7] = assay: Down regulation of NorA gene expression in Staphylococcus aureus 1199B at 3.9 ug/ml measured after 2 hrs by qRT-PCR analysis; format: functional; settings: dose 3.9 µg/ml
[8] = molecular target: T1, Quinolone resistance protein NorA (Staphylococcus aureus); assay: Inhibition of NorA in Staphylococcus aureus 1199B infected human THP-1 cells assessed as potentiation of norfloxacin-induced bactericidal activity by measuring reduction in bacterial count at modulatory concentration measured after 24 hrs relative to control; format: cell-based
[9] = molecular target: T1, Quinolone resistance protein NorA (Staphylococcus aureus); assay: Inhibition of NorA in Staphylococcus aureus 1199B assessed as potentiation of norfloxacin-induced morphological changes by measuring appearance of undeveloped cells sticking together at sub MIC by field emission scanning electron microscopy
[10] = molecular target: T1, Quinolone resistance protein NorA (Staphylococcus aureus); assay: Inhibition of NorA in Staphylococcus aureus 1199B assessed as accumulation of norfloxacin at 3.9 ug/ml by measuring fluorescence intensity measured at 5 mins interval for 40 mins by fluorescence spectrophotometry; settings: dose 3.9 µg/ml
[11] = molecular target: T1, Quinolone resistance protein NorA (Staphylococcus aureus); assay: Inhibition of NorA in Staphylococcus aureus 1199B assessed as potentiation of ethidium bromide-induced antibacterial activity by measuring fractional inhibitory concentration
[12] = molecular target: T1, Quinolone resistance protein NorA (Staphylococcus aureus); assay: Inhibition of NorA in Staphylococcus aureus 1199B assessed as potentiation of ethidium bromide-induced bactericidal activity at 62.5 ug/ml measured within 8 hrs by time-kill kinetics assay; settings: dose 62.5 µg/ml
[13] = molecular target: T1, Quinolone resistance protein NorA (Staphylococcus aureus); assay: Inhibition of NorA in Staphylococcus aureus 1199B infected human THP-1 cells assessed as potentiation of norfloxacin-induced bactericidal activity by measuring reduction in bacterial count at modulatory concentration measured after 24 hrs; format: cell-based
Staphylococcus aureus [14] = assay: Down regulation of NorA gene expression in Staphylococcus aureus 1199B at 3.1 ug/ml measured after 2 hrs by qRT-PCR analysis relative to control; format: functional; settings: dose 3.1 µg/ml
[15] = molecular target: T1, Quinolone resistance protein NorA (Staphylococcus aureus); assay: Inhibition of NorA in Staphylococcus aureus 1199B infected human THP-1 cells assessed as potentiation of norfloxacin-induced bactericidal activity by measuring reduction in intracellular proliferation at modulatory concentration measured after 24 hrs; format: cell-based
Staphylococcus aureus [16] = assay: Antibacterial activity against Staphylococcus aureus 1199 measured after 24 hrs by Muller Hinton broth based MTT assay; format: functional
[17] = Cytotoxicity against kidney epithelial cells (unknown origin) assessed as cell viability at 50 ug/mL measured after 24 hrs by alamar blue assay relative to control; format: toxicity, cell-based, Fetal kidney cell; settings: at 50 µg/mL, read-out: Activity
[18] = molecular target: T1, Quinolone resistance protein NorA (Staphylococcus aureus); assay: Inhibition of NorA in Staphylococcus aureus 1199B assessed as potentiation of norfloxacin-induced antibacterial activity by measuring Norfloxacin MIC at sub MIC relative to norfloxacin MIC alone
Staphylococcus aureus [19] = assay: Antibacterial activity against Staphylococcus aureus K1758 measured after 24 hrs by Muller Hinton broth based MTT assay; format: functional
[20] = molecular target: T1, Quinolone resistance protein NorA (Staphylococcus aureus); assay: Inhibition of NorA in Staphylococcus aureus 1199B assessed as accumulation of ethidium bromide at 3.9 ug/ml by measuring fluorescence intensity measured at 5 mins interval for 40 mins by fluorescence spectrophotometry; settings: dose 3.9 µg/ml
[21] = molecular target: T1, Quinolone resistance protein NorA (Staphylococcus aureus); assay: Inhibition of NorA in Staphylococcus aureus 1199B assessed as potentiation of norfloxacin-induced antibacterial activity by measuring fractional inhibitory concentration
Staphylococcus aureus [22] = assay: Antibacterial activity against Staphylococcus aureus 1199B measured after 24 hrs by Muller Hinton broth based MTT assay; format: functional
[23] = molecular target: T1, Quinolone resistance protein NorA (Staphylococcus aureus); assay: Inhibition of NorA in Staphylococcus aureus 1199B assessed as potentiation of norfloxacin-induced antibacterial activity by measuring Norfloxacin MIC at sub MIC
[24] = molecular target: T1, Quinolone resistance protein NorA (Staphylococcus aureus); assay: Inhibition of NorA in Staphylococcus aureus 1199B infected human THP-1 cells assessed as potentiation of norfloxacin-induced bactericidal activity by measuring log reduction in bacterial count measured after 24 hrs relative to vancomycin; format: cell-based
[25] = molecular target: T1, Quinolone resistance protein NorA (Staphylococcus aureus); assay: Inhibition of NorA in Staphylococcus aureus 1199B assessed as potentiation of ethidium bromide-induced bactericidal activity at 7.8 ug/ml measured within 8 hrs by time-kill kinetics assay; settings: dose 7.8 µg/ml
[26] = molecular target: T1, Quinolone resistance protein NorA (Staphylococcus aureus); assay: Inhibition of NorA in Staphylococcus aureus 1199B assessed as potentiation of 3.1 ug/mL norfloxacin-induced bactericidal activity by measuring log reduction in bacterial count at 7.8 ug/mL measured after 12 hrs by time-kill kinetics assay; settings: dose 7.8 µg/ml
[27] = molecular target: T1, Quinolone resistance protein NorA (Staphylococcus aureus); assay: Inhibition of NorA in Staphylococcus aureus 1199B assessed as potentiation of 3.1 ug/mL norfloxacin-induced bactericidal activity by measuring log reduction in bacterial count at 7.8 ug/mL measured after 24 hrs by time-kill kinetics assay; settings: dose 7.8 µg/ml

## CN1c2ccc(Cl)cc2C(c2ccccc2)=NC1c1ccc(Br)cc1 (stereo not given)
[1]
  fold change (FC): 16
Staphylococcus aureus [2]
  fold change (FC): 9
[3]
  MIC: 3.1 µg/mL
[4]
  Activity: > 3 log10CFU/ml
[5]
  FC: 5
[6]
  inhibition: Active
Staphylococcus aureus [7]
  Activity: Active
[8]
  fold change (FC): 4
[9]
  inhibition: Active
[10]
  Flu intensity: 23600
[11]
  fractional inhibitory concentration index (FICI): 0.187
[12]
  inhibition: Active
[13]
  Activity: 4.47 log10CFU/ml
Staphylococcus aureus [14]
  fold change (FC): 8
[15]
  inhibition: Active
Staphylococcus aureus [16]
  MIC: 125 µg/mL (≈ 304 µM)
[17]
  viability at 24 h, 50 ug/mL: 86.6%
[18]
  fold change (FC): 8
Staphylococcus aureus [19]
  MIC: 250 µg/mL (≈ 607 µM)
[20]
  Flu intensity: 70.6
[21]
  fractional inhibitory concentration index (FICI): 0.141
Staphylococcus aureus [22]
  MIC: 500 µg/mL (≈ 1210 µM)
[23]
  MIC: 6.2 µg/mL
[24]
  FC: 3

## COc1ccc(C2N=C(c3ccccc3)c3ccccc3N2)cc1 (stereo not given)
Staphylococcus aureus [16]
  MIC: 125 µg/mL (≈ 398 µM)
Staphylococcus aureus [19]
  MIC: 250 µg/mL (≈ 795 µM)
Staphylococcus aureus [22]
  MIC: 500 µg/mL (≈ 1590 µM)

## CN1c2ccc(Cl)cc2C(c2ccccc2)=NC1c1ccccc1 (stereo not given)
[1]
  fold change (FC): 4
[3]
  MIC: 12.5 µg/mL
[25]
  inhibition: Active
[26]
  Activity: > 3 log10CFU/ml
[10]
  Flu intensity: 1560
[11]
  fractional inhibitory concentration index (FICI): 0.266
Staphylococcus aureus [16]
  MIC: 125 µg/mL (≈ 376 µM)
[17]
  viability at 24 h, 50 ug/mL: 5%
[18]
  fold change (FC): 8
Staphylococcus aureus [19]
  MIC: 250 µg/mL (≈ 751 µM)
[20]
  Flu intensity: 143
[21]
  fractional inhibitory concentration index (FICI): 0.141
Staphylococcus aureus [22]
  MIC: 500 µg/mL (≈ 1500 µM)
[23]
  MIC: 6.2 µg/mL

## O=[N+]([O-])c1ccc2c(c1)C(c1ccccc1)=NC(c1ccccc1)N2 (stereo not given)
Staphylococcus aureus [16]
  MIC: 125 µg/mL (≈ 380 µM)
Staphylococcus aureus [19]
  MIC: 250 µg/mL (≈ 759 µM)
Staphylococcus aureus [22]
  MIC: 500 µg/mL (≈ 1520 µM)

## CN(C)[C@@H]1C(O)=C(C(N)=O)C(=O)[C@@]2(O)C(O)=C3C(=O)c4c(O)cccc4[C@@](C)(O)[C@H]3C[C@@H]12 [TETRACYCLINE]
Staphylococcus aureus [16]
  MIC: 0.02 µg/mL (≈ 0.045 µM)
Staphylococcus aureus [19]
  MIC: 0.1 µg/mL (≈ 0.225 µM)
Staphylococcus aureus [22]
  MIC: 0.42 µg/mL (≈ 0.945 µM)

## O=[N+]([O-])c1ccc(C2N=C(c3ccccc3)c3ccccc3N2)cc1 (stereo not given)
Staphylococcus aureus [16]
  MIC: 125 µg/mL (≈ 380 µM)
Staphylococcus aureus [19]
  MIC: 250 µg/mL (≈ 759 µM)
Staphylococcus aureus [22]
  MIC: > 1000 µg/mL

## CC[C@H]1OC(=O)[C@H](C)[C@@H](O[C@H]2C[C@@](C)(OC)[C@@H](O)[C@H](C)O2)[C@H](C)[C@@H](O[C@@H]2O[C@H](C)C[C@H](N(C)C)[C@H]2O)[C@](C)(O)C[C@@H](C)C(=O)[C@H](C)[C@@H](O)[C@]1(C)O [ERYTHROMYCIN]
Staphylococcus aureus [16]
  MIC: 0.1 µg/mL (≈ 0.136 µM)
Staphylococcus aureus [19]
  MIC: 0.1 µg/mL (≈ 0.136 µM)
Staphylococcus aureus [22]
  MIC: 0.42 µg/mL (≈ 0.572 µM)

## CC1(C)S[C@@H]2[C@H](NC(=O)[C@H](N)c3ccccc3)C(=O)N2[C@H]1C(=O)O [AMPICILLIN]
Staphylococcus aureus [16]
  MIC: 0.05 µg/mL (≈ 0.143 µM)
Staphylococcus aureus [19]
  MIC: 0.1 µg/mL (≈ 0.286 µM)
Staphylococcus aureus [22]
  MIC: 0.42 µg/mL (≈ 1.2 µM)

## Fc1ccccc1C1=NC(c2ccc(Br)cc2)Nc2ccc(Cl)cc21 (stereo not given)
Staphylococcus aureus [16]
  MIC: 125 µg/mL (≈ 301 µM)
Staphylococcus aureus [19]
  MIC: 250 µg/mL (≈ 601 µM)
Staphylococcus aureus [22]
  MIC: > 1000 µg/mL

## CN1c2ccc(Cl)cc2C(c2ccccc2)=NC1c1ccco1 (stereo not given)
Staphylococcus aureus [16]
  MIC: 125 µg/mL (≈ 387 µM)
Staphylococcus aureus [19]
  MIC: 250 µg/mL (≈ 774 µM)
Staphylococcus aureus [22]
  MIC: > 1000 µg/mL

## CN1c2ccc(Cl)cc2C(c2ccccc2)=NC1c1ccc([N+](=O)[O-])cc1 (stereo not given)
[1]
  fold change (FC): 8
[3]
  MIC: 6.2 µg/mL
[10]
  Flu intensity: 573
[11]
  fractional inhibitory concentration index (FICI): 0.25
Staphylococcus aureus [16]
  MIC: 125 µg/mL (≈ 331 µM)
[17]
  viability at 24 h, 50 ug/mL: 83.1%
[18]
  fold change (FC): 8
Staphylococcus aureus [19]
  MIC: 250 µg/mL (≈ 662 µM)
[20]
  Flu intensity: 100
[21]
  fractional inhibitory concentration index (FICI): 0.141
Staphylococcus aureus [22]
  MIC: 250 µg/mL (≈ 662 µM)
[27]
  Activity: > 3 log10CFU/ml
[23]
  MIC: 6.2 µg/mL
